{
  "source": "patent US9902734B2",
  "about": "“Nicotinic acetylcholine receptor agonists” (priority 2010, dated 2018)",
  "key": {"[1]": {"biological_target": "T1, K-177 cells (β2-containing) (Homo sapiens, UniProt P17787+P43681)", "T1 construct": "expressed in transfected cells; host or cells: K-177", "T1 sequence (P43681 29-627)": "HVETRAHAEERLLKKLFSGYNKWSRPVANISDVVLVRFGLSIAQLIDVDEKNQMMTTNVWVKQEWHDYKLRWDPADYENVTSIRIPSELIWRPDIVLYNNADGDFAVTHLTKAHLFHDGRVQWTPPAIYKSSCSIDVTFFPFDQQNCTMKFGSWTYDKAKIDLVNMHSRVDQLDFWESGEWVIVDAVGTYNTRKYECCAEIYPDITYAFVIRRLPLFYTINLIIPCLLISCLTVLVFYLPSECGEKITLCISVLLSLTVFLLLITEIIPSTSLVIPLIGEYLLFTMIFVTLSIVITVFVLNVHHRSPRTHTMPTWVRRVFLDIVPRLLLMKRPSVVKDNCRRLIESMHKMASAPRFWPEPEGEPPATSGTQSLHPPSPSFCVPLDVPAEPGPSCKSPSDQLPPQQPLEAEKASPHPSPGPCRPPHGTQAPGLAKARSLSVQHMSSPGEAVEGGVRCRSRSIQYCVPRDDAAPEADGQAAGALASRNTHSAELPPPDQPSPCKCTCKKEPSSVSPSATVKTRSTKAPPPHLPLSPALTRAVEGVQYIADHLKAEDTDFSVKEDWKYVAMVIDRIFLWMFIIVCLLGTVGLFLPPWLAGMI", "T1 sequence (P17787 26-502)": "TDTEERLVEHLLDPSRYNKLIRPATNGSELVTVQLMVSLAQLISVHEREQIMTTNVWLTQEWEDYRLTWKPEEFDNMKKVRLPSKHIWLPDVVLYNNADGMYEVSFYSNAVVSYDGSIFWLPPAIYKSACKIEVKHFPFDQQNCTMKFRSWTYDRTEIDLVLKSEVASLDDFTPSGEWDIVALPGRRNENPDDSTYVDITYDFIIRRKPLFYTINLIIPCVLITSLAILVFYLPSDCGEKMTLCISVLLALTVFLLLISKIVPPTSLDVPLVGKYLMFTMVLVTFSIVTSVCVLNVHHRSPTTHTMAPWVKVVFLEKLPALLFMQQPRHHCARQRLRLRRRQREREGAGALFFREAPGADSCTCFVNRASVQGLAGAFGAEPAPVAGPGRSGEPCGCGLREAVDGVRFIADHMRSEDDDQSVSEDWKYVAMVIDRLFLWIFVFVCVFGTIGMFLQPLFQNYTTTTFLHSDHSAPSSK", "assay": "functional fluorescence bioassay of HPLC fractions", "format": "cell-based", "experimental": "(§1) The structures of compounds 1-6 are set forth below.\n(§2) Biological Investigation of Phantasmidine. Semi-preparative HPLC-bioassay analysis was conducted as described previously^9 on the alkaloid fraction of E. anthonyi in several cell lines, including TE-671 (neuromuscular),^16 SH-SY5Y (ganglionic α3*, α3β4*, α7),^15 and several transfected cell lines expressing nicotinic receptor subunit combinations of α2-4 and β2/β4.^12,13,17"}, "[2]": {"system": "nicotinic acetylcholine receptors (cell lines expressing various combinations of nicotinic-receptor subunits)", "assay": "functional fluorescence bioassay of HPLC fractions across several cell lines", "format": "cell-based", "conditions": "for nicotinic receptor agonist activity (time-bioactivity profile of HPLC fractions): several cell lines", "experimental": "as §1, §2\n(§3) Collected analytical scale fractions in 96-well plates were reconstituted in situ with 300 μL Hanks balanced salt solution containing 20 mM HEPES at pH 7.4 (HBSS/HEPES) and were used as such. Cell lines expressing various nicotinic receptors were maintained in culture and used for functional fluorescence assays including SH-SY5Y, IMR-32, TE-671, KXα3β4R2, KXα4β4R1, and KXα4β2R2, as previously described.^9,11 Briefly, cells were plated onto 96-well poly-D-lysine-coated plates in Dulbecco's modified minimum essential media supplemented with 10% fetal bovine serum (supplemented with Geneticin G418 for KXα3β4R2, KXα4β4R1, and KXα4β2R2 cells) and grown to near confluence. The media was aspirated and the cells were gently washed with 2×100 μL HBSS/HEPES (pH 7.4). A solution of Molecular Devices no-wash membrane potential dye (30 μL) was added and the cells incubated in the dark at room temperature for 1 h. Plates were read on a FLEXSTATION™ (Molecular Devices) robotic plate reader at an excitation wavelength of 530 nm, emission wavelength of 565 nm, with a cutoff filter at 550 nm. Basal fluorescence was measured for 15 s and 30 μL of reconstituted E. anthonyi fraction in HBSS/HEPES were added. Response was measured for 105 s and 30 μL of 300 μM nicotine were added. The nicotine response was measured for 40 s and 30 μL of 160 mM KCl were added. Maximal fluorescence was measured for 40 s. Average basal fluorescence was subtracted and response was taken as the peak fluorescence for each addition divided by the maximal KCl fluorescence. Responses for each fraction were plotted as a function of time and compared to the UV and total ion chromatograms to identify active components. Preparative-scale isolation was then conducted and structures of active components were elucidated."}, "[3]": {"biological_target": "T2, TE-671 cells (neuromuscular) (Homo sapiens, UniProt P02708+P07510+Q07001)", "T2 construct": "endogenous in cells; host or cells: TE-671", "assay": "functional fluorescence (membrane potential dye) bioassay of HPLC fractions", "format": "cell-based", "experimental": "as §1, §2, §3"}, "[4]": {"biological_target": "T3, KXα4β2R2 cells (β2-containing) (Rattus norvegicus, UniProt P09483+P12390)", "T3 construct": "expressed in transfected cells; host or cells: KXα4β2R2 (G418-selected transfected line)", "T3 sequence (P12390 25-500)": "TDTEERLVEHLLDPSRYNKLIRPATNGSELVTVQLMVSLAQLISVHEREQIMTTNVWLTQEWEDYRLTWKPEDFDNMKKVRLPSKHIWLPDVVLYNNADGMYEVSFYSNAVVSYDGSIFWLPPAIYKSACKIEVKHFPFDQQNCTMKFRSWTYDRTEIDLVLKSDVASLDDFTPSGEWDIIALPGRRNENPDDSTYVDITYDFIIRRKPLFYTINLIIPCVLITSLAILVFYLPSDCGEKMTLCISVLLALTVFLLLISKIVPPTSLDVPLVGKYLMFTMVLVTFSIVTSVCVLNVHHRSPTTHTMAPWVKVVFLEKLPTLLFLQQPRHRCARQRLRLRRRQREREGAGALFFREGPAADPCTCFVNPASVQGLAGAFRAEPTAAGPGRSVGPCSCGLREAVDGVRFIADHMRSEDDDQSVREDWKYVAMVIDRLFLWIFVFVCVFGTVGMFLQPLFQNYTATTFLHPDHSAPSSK", "T3 sequence (P09483 31-630)": "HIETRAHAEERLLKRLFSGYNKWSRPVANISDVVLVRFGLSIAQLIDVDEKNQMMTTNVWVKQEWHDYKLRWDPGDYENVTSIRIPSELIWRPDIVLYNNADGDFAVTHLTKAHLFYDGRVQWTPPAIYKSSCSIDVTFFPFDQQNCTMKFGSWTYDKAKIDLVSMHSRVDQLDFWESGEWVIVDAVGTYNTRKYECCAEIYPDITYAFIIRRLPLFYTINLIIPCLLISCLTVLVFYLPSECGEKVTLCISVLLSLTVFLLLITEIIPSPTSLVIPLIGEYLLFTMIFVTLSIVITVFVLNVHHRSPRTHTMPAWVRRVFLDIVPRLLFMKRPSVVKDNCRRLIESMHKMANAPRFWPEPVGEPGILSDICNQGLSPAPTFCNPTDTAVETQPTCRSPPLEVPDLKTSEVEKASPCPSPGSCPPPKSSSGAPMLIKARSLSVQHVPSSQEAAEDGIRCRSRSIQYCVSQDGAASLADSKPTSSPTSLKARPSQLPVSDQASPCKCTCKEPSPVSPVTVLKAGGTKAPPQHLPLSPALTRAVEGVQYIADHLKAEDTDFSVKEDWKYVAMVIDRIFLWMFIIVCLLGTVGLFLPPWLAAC", "assay": "functional fluorescence (membrane potential dye) bioassay of HPLC fractions", "format": "cell-based", "experimental": "as §1, §2, §3"}, "[5]": {"biological_target": "T4, KXα4β4R1 cells (β4 nicotinic subunits) (Rattus norvegicus, UniProt P09483+P12392)", "T4 construct": "expressed in transfected cells; host or cells: KXα4β4R1 (G418-selected transfected line)", "T4 sequence (P09483 31-630)": "as above", "T4 sequence (P12392 21-495)": "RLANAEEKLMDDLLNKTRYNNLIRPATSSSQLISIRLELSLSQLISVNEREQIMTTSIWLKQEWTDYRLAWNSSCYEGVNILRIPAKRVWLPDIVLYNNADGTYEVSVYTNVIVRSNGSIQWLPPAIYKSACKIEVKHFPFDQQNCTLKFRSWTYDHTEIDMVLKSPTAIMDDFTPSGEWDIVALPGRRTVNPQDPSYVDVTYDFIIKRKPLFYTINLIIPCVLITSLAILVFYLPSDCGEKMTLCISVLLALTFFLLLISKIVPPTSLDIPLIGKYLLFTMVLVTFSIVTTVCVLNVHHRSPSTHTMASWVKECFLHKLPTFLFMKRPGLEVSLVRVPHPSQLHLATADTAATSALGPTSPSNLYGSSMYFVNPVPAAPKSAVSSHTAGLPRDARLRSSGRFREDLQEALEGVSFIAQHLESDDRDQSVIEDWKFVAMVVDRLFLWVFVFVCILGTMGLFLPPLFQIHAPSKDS", "assay": "functional fluorescence (membrane potential dye) bioassay of HPLC fractions", "format": "cell-based", "experimental": "as §1, §2, §3"}, "[6]": {"system": "SH-SY5Y cells (ganglionic α3*, α3β4*, α7)", "assay": "functional fluorescence (membrane potential dye) bioassay of HPLC fractions", "format": "cell-based", "experimental": "as §1, §2, §3"}, "[7]": {"system": "IMR-32 cells (β4 nicotinic subunits)", "assay": "functional fluorescence (membrane potential dye) bioassay of HPLC fractions", "format": "cell-based", "experimental": "as §1, §2, §3"}, "[8]": {"biological_target": "T5, KXα3β4R2 cells (HEK cells expressing rat α3 and β4 nicotinic receptor subunits) (Rattus norvegicus, UniProt P04757+P12392)", "T5 construct": "expressed in transfected cells; host or cells: HEK cells (KXα3β4R2)", "T5 sequence (P12392 21-495)": "as above", "T5 sequence (P04757 26-499)": "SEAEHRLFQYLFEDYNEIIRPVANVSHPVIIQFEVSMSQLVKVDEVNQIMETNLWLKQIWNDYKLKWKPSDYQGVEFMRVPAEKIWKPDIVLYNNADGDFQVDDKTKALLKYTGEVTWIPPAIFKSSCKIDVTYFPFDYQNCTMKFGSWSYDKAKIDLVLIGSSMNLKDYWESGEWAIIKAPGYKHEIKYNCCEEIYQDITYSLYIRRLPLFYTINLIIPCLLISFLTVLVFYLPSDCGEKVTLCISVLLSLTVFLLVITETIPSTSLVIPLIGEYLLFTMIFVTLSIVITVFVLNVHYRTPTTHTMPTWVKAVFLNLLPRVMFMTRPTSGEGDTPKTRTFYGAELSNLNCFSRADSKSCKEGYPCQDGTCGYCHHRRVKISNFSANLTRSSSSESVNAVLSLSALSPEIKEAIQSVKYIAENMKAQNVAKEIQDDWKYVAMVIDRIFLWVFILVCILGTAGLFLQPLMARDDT", "format": "cell-based"}, "nicotinic receptors": {"system": "nicotinic receptors", "conditions": "cited from earlier work"}},
  "note": "Entries after “also recorded” stand apart in the source; their conditions may differ.",
  "data": [
    {"smiles": "Clc1ccc2c(n1)O[C@@]13CC[C@@H]1NC[C@@H]23", "note": "[Compound 4, Phantasmidine]", "values": [
      {"measurement": "relative activity compared to 1 (height and area of activity peaks)", "setting": "[1]", "result": "less activity"},
      {"measurement": "subtype selectivity relative to 1", "setting": "[2]; across several cell lines expressing different nicotinic-receptor subtypes", "result": "altered subtype selectivity relative to 1"},
      {"measurement": "nicotinic receptor agonist activity (time-bioactivity profile of HPLC fractions)", "setting": "[2]", "result": "significant bioactivity; also recorded: nicotinic agonist"},
      {"measurement": "relative activity compared to 1 (height and area of activity peaks)", "setting": "[3]", "result": "less activity"},
      {"measurement": "relative activity compared to 1 (height and area of activity peaks)", "setting": "[4]", "result": "less activity"},
      {"measurement": "relative activity compared to 1 (height and area of activity peaks)", "setting": "[5]", "result": "higher relative activities"},
      {"measurement": "relative activity compared to 1 (height and area of activity peaks)", "setting": "[6]", "result": "higher relative activities"},
      {"measurement": "relative activity compared to 1 (height and area of activity peaks)", "setting": "[7]", "result": "higher relative activities"},
      {"measurement": "relative activity compared to 1 (height and area of activity peaks)", "setting": "[8]; KXα3β4R2 cells", "result": "higher relative activities"}
    ]},
    {"smiles": "Clc1ccc(C2CC3CCC2N3)cn1", "note": "(centres unmarked) [Compound 1, epibatidine]", "values": [
      {"measurement": "nicotinic receptor agonist activity (time-bioactivity profile of HPLC fractions)", "setting": "[2]", "result": "active in all cell lines to varying degrees; also recorded: greatest activity in the sample regardless of cell line examined"}
    ]},
    {"smiles": "CN1C2CCC1C(c1ccc(Cl)nc1)C2", "note": "(centres unmarked) [Compound 3, N-methylepibatidine]", "values": [
      {"measurement": "nicotinic receptor agonist activity (time-bioactivity profile of HPLC fractions)", "setting": "[2]", "result": "responsible for the leading edge of the epibatidine activity; also recorded: significant bioactivity"},
      {"measurement": "potency relative to epibatidine", "setting": "nicotinic receptors", "result": "essentially equipotent with epibatidine"}
    ]},
    {"smiles": "CC(=O)N[C@H]1CCCN2CCCC[C@@H]12", "note": "[Compound 2, epiquinamide, reference compound]", "values": [
      {"measurement": "nicotinic receptor agonist activity (time-bioactivity profile of HPLC fractions)", "setting": "[2]", "result": "artifact due to a cross-contamination from 1"},
      {"measurement": "nicotinic-agonist activity of isolated fraction", "setting": "[8]; cells expressing α3 and β4 subunits, fractions of E. anthonyi alkaloid extract", "result": "artifactual activity from cross contamination with epibatidine"}
    ]}
  ]
}
